Measurements: publication PMC5719359 (Scientific Reports, 2017)

Biological target: T1, tubulin (Sus scrofa, UniProt P02550+P02554)
T1 construct: purified porcine tubulin; with alpha-tubulin (alpha/beta heterodimer)
Test: fluorescence colchicine competition assay; the IC50 is from the in vitro tubulin polymerization assay
Format: biochemical

Compound `COc1cc(OC)cc(N2CCN(C(=O)c3n[nH]nc3-c3ccccc3Cl)CC2)c1` [7p] has an IC50 of 2.06 µM.
